Experimental findings from paper PMC6933783 (ACS Omega, 2019) are described below.

One assay deals with T1, MAO-B (Homo sapiens, UniProt P27338).
T1 sequence (P27338 1-520): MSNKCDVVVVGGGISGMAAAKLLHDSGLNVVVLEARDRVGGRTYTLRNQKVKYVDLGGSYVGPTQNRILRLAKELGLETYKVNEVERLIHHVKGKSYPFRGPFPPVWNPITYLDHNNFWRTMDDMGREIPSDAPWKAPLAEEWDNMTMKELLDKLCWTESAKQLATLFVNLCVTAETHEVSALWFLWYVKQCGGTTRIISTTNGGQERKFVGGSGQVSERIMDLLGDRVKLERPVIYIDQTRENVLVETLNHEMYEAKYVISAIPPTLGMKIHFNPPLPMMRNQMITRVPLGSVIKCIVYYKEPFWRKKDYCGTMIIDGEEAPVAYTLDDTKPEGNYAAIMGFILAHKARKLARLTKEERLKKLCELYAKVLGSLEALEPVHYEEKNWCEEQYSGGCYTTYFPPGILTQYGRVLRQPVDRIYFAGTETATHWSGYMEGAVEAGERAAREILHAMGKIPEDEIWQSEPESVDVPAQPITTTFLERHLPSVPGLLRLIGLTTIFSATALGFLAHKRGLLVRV
Description: Reversibility of MAO-B inhibition. Format: biochemical. The settings on record: dilution assay, 30 min preincubation, Figure S3.

Assay [1] has as its target human acetylcholinesterase (AChE) (Homo sapiens, UniProt P22303). Description: Cholinesterase assay. The class given is biochemical. To be noted: for αKi ± SE, AChE: uncompetitive contribution, Lineweaver-Burk plots.

Chain of human acetylcholinesterase (AChE) (P22303 32-617 isoform P22303-2 limits assumed): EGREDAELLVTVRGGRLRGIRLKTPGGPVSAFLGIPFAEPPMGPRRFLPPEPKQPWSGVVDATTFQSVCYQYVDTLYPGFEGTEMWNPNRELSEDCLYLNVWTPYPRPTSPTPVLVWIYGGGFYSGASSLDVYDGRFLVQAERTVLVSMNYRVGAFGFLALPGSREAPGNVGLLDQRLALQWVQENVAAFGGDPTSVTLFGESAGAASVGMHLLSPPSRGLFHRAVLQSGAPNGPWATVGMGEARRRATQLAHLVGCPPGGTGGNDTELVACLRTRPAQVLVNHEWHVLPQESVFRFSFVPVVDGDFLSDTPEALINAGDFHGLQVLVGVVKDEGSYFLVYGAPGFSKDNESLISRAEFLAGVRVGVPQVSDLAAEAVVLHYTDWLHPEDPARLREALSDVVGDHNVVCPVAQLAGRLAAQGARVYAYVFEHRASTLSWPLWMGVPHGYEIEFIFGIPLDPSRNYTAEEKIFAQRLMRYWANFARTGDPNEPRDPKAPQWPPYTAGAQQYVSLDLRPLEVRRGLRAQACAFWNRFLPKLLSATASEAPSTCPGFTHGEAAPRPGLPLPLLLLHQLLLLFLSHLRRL

Regarding `O=c1ccoc2ccc(OCCCCN3CCCCC3)cc12` [Compound 7, 6-(4-(piperidin-1-yl)butoxy)-4H-chromen-4-one], the “reversibility of MAO-B inhibition” value on MAO-B was “reversibility of MAO-B inhibition was exemplarily demonstrated”.

For `CN1CCN(CCCCOc2ccc3occc(=O)c3c2)CC1` [Compound 15, 6-(4-(4-Methylpiperazin-1-yl)butoxy)-4H-chromen-4-one], in assay [1], the Ki is 2.06 ± 0.56 µM and the “αKi ± SE, AChE” value was 5.36 ± 0.70 µM.

As to `C[C@@H]1CCCN1CCCCOc1ccc2occc(=O)c2c1` [Compound 27], in assay [1], the Ki worked out at 9.23 ± 5.01 µM and the “αKi ± SE, AChE” value was found to be 19.0 ± 4.1 µM.

As a reminder, the Ki is a measure of affinity in units of concentration, obtained from inhibition or displacement. A higher Ki goes with lower affinity.
